According to patent US20260102324A1, “PERFUMING COMPOSITIONS COMPRISING A 2-(ALKYLSULFONYL)OCTAN-4-ONE” (FIRMENICH SA, priority 2022, published 2026):

Assays:
Type in all cases: physicochemical
[1] = Determination of the solubilization temperature (T_sol), shallow heating ramp to 100% transparency
Procedure: (§1) Solid 2-(dodecylsulfonyl)octan-4-one was mixed with different solvents and transferred to a 8 mL vial equipped with an overhead stirrer. The sample was placed in a Crystalline PV instrument (Technobis, The Netherlands). Heating and cooling steps were applied under mechanical stirring, and the samples were monitored by following transparency via a LED light beam that passes through the vial. Full (100%) transparency is attained when 2-(dodecylsulfonyl)octan-4-one is completely dissolved in the solvent. On the other hand, when the measured values of transparency are below 100% the dissolution process is still incomplete.
(§2) A first heating step was carried out by quickly (+5° C./min) heating the sample above its solubility temperature to 60° C. After complete dissolution, a cooling ramp to 1° C. was applied (−2° C./min), i.e. below the solubility temperature of the sample, where the sample was kept stirring until 2-(dodecylsulfonyl)octan-4-one has crystallized. Subsequently a second heating step was carried out by applying a shallow heating ramp (+0.1° C./min) in order to dissolve the material under quasi-isothermal conditions. The transparency of the sample was monitored as a function of time during the heating ramp. Once the signal has attained 100% transparency, the dissolution process was complete and the respective temperature was taken as the solubilization temperature (T_sol).
Following the methodology described above, 2-(dodecylsulfonyl)octan-4-one was mixed with various solvents/liquid carriers that are suitable for perfumery compositions or with perfumery raw materials at a concentration of 5 wt. % and the solubilization temperature has been determined. The solvents and perfumery raw materials used and the respective solubilization temperatures are depicted in Tables 1-3 below. […]

[2] = Solubility at 25° C. from exponential fit of temperature-solubility curves; settings: from extrapolation of temperature-solubility curves
Procedure: The solubility of 2-(dodecylsulfonyl)octan-4-one at 25° C. in various solvents or perfumery raw materials has been determined based on the data presented in Table 9. For each solvent or perfumery raw material, the measured solubility as a function of temperature has been fitted to an exponential function. The solubility at 25° C. has been obtained by extrapolation or interpolation of this exponential function. The results/exponential curves are shown in the Figure (black triangle: DIPG, grey squares: IPM, open diamonds: Hedione®, black circles: gamma-nonalactone and Cetiol® Ultimate (80/20); the continuous lines represent exponential functions fit to the experimental data).

[3] = Solubility measurements by light transparency (Crystalline PV instrument) on heating to 60° C. and cooling
Procedure: as §1, §2
Following the methodology described above, 2-(dodecylsulfonyl)octan-4-one was mixed with various solvents/liquid carriers that are suitable for perfumery compositions or with perfumery raw materials at a concentration of 5 wt. % and the solubilization temperature has been determined. The solvents and perfumery raw materials used and the respective solubilization temperatures are depicted in Tables 1-3 below.

[4] = 5 wt. % in Dimethylglutarate (DBE-5)
[5] = 5 wt. % in Dipropylene glycol (DIPG)
[6] = 5 wt. % in Fragrance composition F1
[7] = 5 wt. % in Fragrance composition F2
[8] = 5 wt. % in Fragrance composition F3
[9] = 5 wt. % in Fragrance composition F4
[10] = 5 wt. % in Fragrance composition F5
[11] = 5 wt. % in Isopropyl myristate (IPM)
[12] = 5 wt. % in gamma-Nonalactone/Cetiol ® Ultimate (80/20; w/w)
[13] = 5 wt. % in gamma-Valerolactone/Isopropyl Myristate (IPM) (70/30 w/w)

SMILES: CCCCCCCCCCCCS(=O)(=O)C(C)CC(=O)CCCC (centres unmarked) [2-(dodecylsulfonyl)octan-4-one]
- T_sol ([1]; 5 wt. % in Cetiol ® Ultimate): 45.4 °C
- T_sol [1, 4]: 27.3 °C
- T_sol [1, 5]: 44.6 °C
- T_sol ([1]; 5 wt. % in Ethyl lactate): 26.5 °C
- T_sol [1, 6]: 21.1 °C
- T_sol [1, 7]: 19.8 °C
- T_sol [1, 8]: 17.8 °C
- T_sol [1, 9]: 24.0 °C
- T_sol [1, 10]: 16.3 °C
- T_sol ([1]; 5 wt. % in Hedione ®): 21.0 °C
- T_sol [1, 11]: 33.5 °C
- T_sol ([1]; 5 wt. % in Triacetine): 41.1 °C
- T_sol ([1]; 5 wt. % in Triethyl citrate): 36.2 °C
- T_sol ([1]; 5 wt. % in gamma-Decalactone): 14.6 °C
- T_sol [1, 12]: 10.5 °C
- T_sol ([1]; 5 wt. % in gamma-Undecalactone): 15.3 °C
- T_sol ([1]; 5 wt. % in gamma-Valerolactone): 23.0 °C
- T_sol [1, 13]: 15.3 °C
- Solubility of 2-(dodecylsulfonyl)octan-4-one at 25° C. ([2]; in gamma-Valerolactone/IPM (70:30 w/w)): 11.3 wt. %
- Solubility of 2-(dodecylsulfonyl)octan-4-one at 25° C. ([2]; in gamma-Valerolactone): 5.5 wt. %
- Soluble after cooling to 25° C. ([3]; 5 wt. % in Cetiol ® Ultimate): not capable of fully dissolving and no
- Soluble at 60° C. ([3]; 5 wt. % in Cetiol ® Ultimate): yes
- Soluble after cooling to 25° C. [3, 4]: not capable of fully dissolving and no
- Soluble at 60° C. [3, 4]: yes
- Soluble after cooling to 25° C. [3, 5]: not capable of fully dissolving and no
- Soluble at 60° C. [3, 5]: yes
- Soluble after cooling to 25° C. ([3]; 5 wt. % in Ethyl lactate): not capable of fully dissolving and no
- Soluble at 60° C. ([3]; 5 wt. % in Ethyl lactate): yes
- Soluble after cooling to 25° C. [3, 6]: yes
- Soluble at 60° C. [3, 6]: yes
- Soluble after cooling to 25° C. [3, 7]: yes
- Soluble at 60° C. [3, 7]: yes
- Soluble after cooling to 25° C. [3, 8]: yes
- Soluble at 60° C. [3, 8]: yes
- Soluble after cooling to 25° C. [3, 9]: yes
- Soluble at 60° C. [3, 9]: yes
- Soluble after cooling to 25° C. [3, 10]: yes
- Soluble at 60° C. [3, 10]: yes
- Soluble after cooling to 25° C. ([3]; 5 wt. % in Hedione ®): yes
- Soluble at 60° C. ([3]; 5 wt. % in Hedione ®): yes
- Soluble after cooling to 25° C. [3, 11]: not capable of fully dissolving and no
- Soluble at 60° C. [3, 11]: yes
- Soluble after cooling to 25° C. ([3]; 5 wt. % in Triacetine): not capable of fully dissolving and no
- Soluble at 60° C. ([3]; 5 wt. % in Triacetine): yes
- Soluble after cooling to 25° C. ([3]; 5 wt. % in Triethyl citrate): not capable of fully dissolving and no
- Soluble at 60° C. ([3]; 5 wt. % in Triethyl citrate): yes
- Soluble after cooling to 25° C. ([3]; 5 wt. % in gamma-Decalactone): yes
- Soluble at 60° C. ([3]; 5 wt. % in gamma-Decalactone): yes
- Soluble after cooling to 25° C. [3, 12]: yes
- Soluble at 60° C. [3, 12]: yes
- Soluble after cooling to 25° C. ([3]; 5 wt. % in gamma-Undecalactone): yes
- Soluble at 60° C. ([3]; 5 wt. % in gamma-Undecalactone): yes
- Soluble after cooling to 25° C. ([3]; 5 wt. % in gamma-Valerolactone): yes
- Soluble at 60° C. ([3]; 5 wt. % in gamma-Valerolactone): yes
- Soluble after cooling to 25° C. [3, 13]: yes
- Soluble at 60° C. [3, 13]: yes
